Measured values reported in US9980490B1, “Method of disinfecting bacterial contaminated surfaces or removing bacteria from contaminated surfaces” (priority 2014, dated 2018).
Like-named read-outs stand apart in the source and are kept apart here.

Legend:
mammals and birds = details: EPA Biochemical Division registration as bioherbicide; cited from earlier work
[1] = Highest aqueous concentration before salt precipitates; format: physicochemical; details: room temperature; above this insoluble salt precipitates
Source text: The final salt (soap) product, ammonium nonanoate, is made by neutralization by mixing the oleic-derived nonanoic acid with an equal molar amount of ammonia dissolved in water until a clear one-phase solution with a pH range of 7.5 to 8.5 occurs. At this point all of the acid is converted to ammonium salt: none remains in the product. […] The final concentration of ammonium nonanoate depends on the amount of water used. The highest concentration that can be made is approximately 40% since above this concentration at room temperature, insoluble salt precipitates as a solid.

[2] = according to the EPA; cited from earlier work
[3] = system: Escherichia coli (gram negative); test: Suspension time-kill test of aqueous ammonium nonanoate, survivors assayed after neutralization; format: cell-based; details: 1% aqueous solution, 1 minute exposure, ambient temperature
Procedure: (§1) There were no other ingredients in these solutions except the ammonium salts and water. […] Suspensions of test bacteria were exposed to the 1% and 2% ammonium nonanoate solutions for specified exposure times at ambient temperature. After exposure, aliquots of the suspensions were transferred to neutralizer and assayed for survivors. Appropriate culture purity, neutralizer sterility, test population, and neutralization confirmation controls were performed. […] This is a reduction of live bacteria of >99.999%.

[4] = system: Enterococcus faecalis (gram positive); test: as above; format: cell-based; details: 1% aqueous solution, 1 minute exposure, ambient temperature
Procedure: as §1

Staphylococcus aureous = test: Suspension time-kill test of aqueous ammonium nonanoate; format: cell-based; details: 2% aqueous solution, 2 minutes
Procedure: as §1

[5] = system: pseudomonas aeruginosa (gram negative); test: as above; format: cell-based; details: 2% aqueous solution, 1 minute
Procedure: as §1

Staphlycoccus aureous = details: even numbered C8 to C18 fatty acids screened; cited from earlier work
Streptococcus Group A = details: even numbered C8 to C18 fatty acids screened; cited from earlier work
Candida albicans = details: even numbered C8 to C18 fatty acids screened; cited from earlier work
mice = details: oral, Federal Register; cited from earlier work
rats [6] = details: cited from earlier work; for LD50: oral, Federal Register
human skin = details: 12% solution, 48 hr. closed patch test; cited from earlier work
rats [7] = details: cited from earlier work

## CCCCCCCCC(=O)O.N [ammonium nonanoate]
Mammals and birds
  toxicity to mammals and birds: non-toxic
[1]
  highest concentration that can be made in water: approximately 40%
[2]
  time to biodegradation after formation: ≤ 24 h
[3]
  log reduction in the population: 5 log
  reduction of live bacteria: > 99.999%
[4]
  log reduction in the population: 5 log
  reduction of live bacteria: > 99.999%
Staphylococcus aureous
  reduction in population: > 99.999%
[5]
  reduction in population: > 99.999%

## CCCCCCCCCC(=O)O [capric acid]
Staphlycoccus aureous
  antimicrobial activity relative to other fatty acids tested: highest activity
Streptococcus Group A
  antimicrobial activity relative to other fatty acids tested: highest activity
Candida albicans
  antimicrobial activity relative to other fatty acids tested: highest activity

## CCCCCCCCC(=O)O [nonanoic acid]
mice
  LD50: 5,000 mg/kg
Rats [6]; male rats
  oral LD50: > 9,000 mg/kg
Rats [6]; rats, indicated by no death at 3,200 mg/kg
  LD50: over 3,200 mg/kg
Rats [6]; rats
  LD50: 5,000 mg/kg
Rats [6]; rats, Patty's Industrial Hygiene and Toxicology
  oral LD50: 15 g/kg
Rats [6]; undiluted, oral, 3,200 mg/kg body weight, Federal Register Vol. 69 No. 52 p. 12672
  death of rats: did not cause death of any of the rats
Human skin
  irritation on human skin: no irritation
Rats [7]; 0.46 mg/liter as an aerosol for four hours
  mortality: no mortality
Rats [7]; atmospheric concentration (125 ppm), 6 hours
  symptoms of toxicity: no symptoms of toxicity
